# Measurements taken from patent EP4782453A1 (Beyang Therapeutics Co., Ltd., priority 2023, dated 2025).
# Tests used:
# Type in all cases: cell-based
# [1] = test system: KG-1a (wild-type MLL); test: Inhibition of proliferation of human tumor cells (Alamar Blue, 7 days), KG-1a control cell line; conditions: 168 h, KG-1a cells (wild-type MLL, control cell line), method calls the value GI50
# Summary of the method: (§1)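 Suspension cells were plated, dosed the same day with a graded compound series, and incubated seven days at 37°C under 5% CO2. Growth was then measured by Alamar Blue fluorescence, and the concentration halving proliferation (GI50) was calculated relative to Day 0 and Day 7 vehicle controls.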
# [2] = test system: MOLM-13 (carrying MLL-AF9); test: Inhibition of proliferation of human tumor cells (Alamar Blue, 7 days), MOLM-13; conditions: Homo sapiens, MOLM-13 cells (carrying MLL-AF9), method calls the value GI50
# Summary of the method: as §1
# [3] = test system: MEIS1 gene expression; test: Inhibition of MEIS1 gene expression in human tumor cells (qRT-PCR), MV-4-11; conditions: MV4-11, MV-4-11 (carrying MLL-AF4), 48 hours of incubation, relative MEIS1 gene expression vs GAPDH, read-out: MV-4-11 MEISI EC50
# Description: Experimental Example 3: Evaluation of Inhibitory Activity of Compounds Against MEISI Gene Expression in Human Tumor Cells
# The effect of test samples on MEIS1 gene expression in vitro cultured human leukemia cells MV-4-11 (carrying MLL-AF4), MOLM-13 (carrying MLL-AF9), and OCI-AML3 (carrying NPM1c) was studied.
# • Human acute lymphoblastic leukemia cells MV-4-11, purchased from American Type Culture Collection, Catalog Number: CRL-9591; • Human acute myeloid leukemia cells MOLM-13, purchased from COBIOER BIOSCIENCES CO., LTD, Catalog Number: CBP60678; • Human acute myeloid leukemia cells OCI-AML3, purchased from COBIOER BIOSCIENCES CO., LTD, Catalog Number: CBP60817; • MEIS1 Primer/Probe, purchased from IDT, Catalog Number: 40831613; and • GAPDH Primer/Probe, purchased from IDT, Catalog Number: 22214836.
# MV-4-11 cells were cultured in an IMDM medium containing 10% fetal bovine serum, or MOLM-13 and OCI-AML3 cells were cultured in an RPMI-1640 medium containing 20% fetal bovine serum, each supplemented with 100 U·mL^-1 penicillin and 100 µg·mL^-1 streptomycin. These cells were cultured at 37°C with 5% CO2. The suspensions of individual cell lines were prepared in their respective media and seeded into 48-well plates at a density of 100,000 cells/well. On the day of the experiment, a compound stock solution was diluted in a 6-fold gradient using DMSO. Each gradient-diluted stock solution was then further diluted 250-fold with a complete medium to prepare a series of working solutions at different concentrations. Next, 250 µL of working solution (containing the complete medium with a 2-fold serial concentration of the test compound or a positive control compound, or containing a control complete medium) was added to each well. After 48 hours of incubation, cells from the 48-well plate were collected into 1 mL centrifuge tubes, centrifuged at 1000 rpm for 5 minutes, and the complete medium was removed. Cells were washed twice with 1 mL PBS and centrifuged to remove PBS. Total RNA was extracted using the RNeasy Mini Kit (250) (QIAGEN, 74106). The threshold cycle (Ct) value for gene expression was determined using the HiScript II U+ One Step qRT-PCR Probe Kit (Vazyme) (Vazyme, Q223-01), with 3 replicates per sample. The prepared reaction mixture was placed in an ABI 7500 real-time PCR instrument, and the reaction proceeded following the procedures below. [formula]
# Next, for the relative MEIS1 gene expression, the concentration (EC50) that inhibits 50% of relative MEIS1 gene expression was calculated using GraphPad Prism 8 software.
Structure (SMILES),IC50 [1],EC50 [3],IC50 ([2]; 168 h),"IC50 ([2]; MOLM-13, 168 h)"
"CCN(C(=O)c1cc(F)ccc1-c1cc(C2(F)CN(C(=O)C3NC4CCC3CC4)C2)cn2c(C)ncc12)C(C)C [Example 75, N-ethyl-5-fluoro-2-(6-{3-fluoro-1-[(1R,3S,4S)-2-azabicyclo[2.2.2]octan-3-carbonyl]azacyclobutan-3-yl}-3-methylimidazo[1,5-a]pyridin-8-yl)-N-(isopropyl) benzamide]",20000 nM,82 nM,,78 nM
CCN(C(=O)c1cc(F)ccc1-c1cc(C2CCN(Cc3ccc(-c4cc(OC)c(OC)nn4)cc3)C2)cn2c(C)ncc12)C(C)C (centres unmarked) [Example 83],7400 nM,24 nM,33 nM,
"CCS(=O)(=O)N[C@H]1CC[C@H](CN2CC(c3cc(-c4ccc(F)cc4C(=O)N4CCOC[C@H]4C)c4cnc(C)n4c3)C2)CC1 [Example 134, N-[(1r,4r)-4-{[3-(8-{4-fluoro-2-[(3R)-3-methylmorpholin-4-carbonyl]phenyl}-3-methylimidazo[1,5-a]pyridin-6-yl)azacyclobutan-1-yl]methyl}cyclohexyl]ethan-1-sulfonamide]",20000 nM,55 nM,21 nM,
CCS(=O)(=O)N[C@H]1CC[C@H](CN2CC(c3cc(-c4ccc(F)cc4C(=O)N(CC(F)F)C(C)C)c4cnc(C)n4c3)C2)CC1 [Example 138],20000 nM,15 nM,7.6 nM,
"COCCN(C)CCCC(C(C)C)N1CC(c2cc(-c3ccc(F)cc3C(=O)N(CC(F)F)C(C)C)c3c(F)nc(C)n3c2)C1 (centres unmarked) [Example 142, N-(2,2-difluoroethyl)-5-fluoro-2-[1-fluoro-6-(1-{6-[(2-methoxyethyl)(methyl)amino]-2-methylhexan-3-yl}azacyclobutan-3-yl)-3-methylimidazo[1,5-a]pyridin-8-yl]-N-(isopropyl)benzamide]",3600 nM,6 nM,10 nM,
COCCN(C)CCCC(C(C)C)N1CC(c2cc(-c3ccc(F)cc3C(=O)N3CCOCC3C)c3cnn(C)c3c2)C1 (centres unmarked) [Example 185],20000 nM,55 nM,70 nM,
"COCCN(C)CCC[C@H](C(C)C)N1CC(c2cc(-c3ccc(F)cc3C(=O)N3[C@H](C)COC[C@H]3C)c3cnn(C)c3c2)C1 [Example 186-2, [(4R)-4-[3-(4-{2-[(3R,5R)-3,5-dimethylmorpholin-4-carbonyl]-4-fluorophenyl}-1-methyl-1H-indazol-6-yl)azacyclobutan-1-yl]-5-methylhexyl](2-methoxyethyl)methylamine]",20000 nM,3.8 nM,28 nM,
"CCS(=O)(=O)N[C@H]1CC[C@H](CN2CC(c3cc(-c4ccc(F)cc4C(=O)N4[C@H](C)COC[C@H]4C)c4c(F)nc(C)n4c3)C2)CC1 [Example 197, N-[(1r,4r)-4-{[3-(8-{2-[(3R,5R)-3,5-dimethylmorpholin-4-carbonyl]-4-fluorophenyl}-1-fluoro-3-methylimidazo[1,5-a]pyridin-6-yl)azacyclobutan-1-yl]methyl}cyclohexyl]ethan-1-sulfonamide]",20000 nM,14 nM,,10.2 nM
COCCN(C)CCC[C@H](C(C)C)N1CC(c2cc(-c3ccc(F)cc3C(=O)N3CCOC[C@H]3C)c3c(F)nc(C)n3c2)C1 [Example 200-1],20000 nM,12 nM,10.2 nM,
COC1CCN(CCCC(C(C)C)N2CC(c3cc(-c4ccc(F)cc4C(=O)N4CCOCC4C)c4c(F)nc(C)n4c3)C2)C1 (centres unmarked) [Example 201-1],20000 nM,3.4 nM,5.1 nM,
CO[C@@H]1CCN(CCC[C@H](C(C)C)N2CC(c3cc(-c4ccc(F)cc4C(=O)N4CCOC[C@H]4C)c4c(F)nc(C)n4c3)C2)C1 [Example 202],20000 nM,3.5 nM,11 nM,
"COC1CCN(CCC[C@H](C(C)C)N2CC(c3cc(-c4ccc(F)cc4C(=O)N4CCOC[C@H]4C)c4c(F)nc(C)n4c3)C2)CC1 [Example 204, (3R)-4-[5-fluoro-2-(1-fluoro-6-{1-[(3R)-6-(4-methoxypiperidin-1-yl)-2-methylhexan-3-yl]azacyclobutan-3-yl}-3-methylimidazo[1,5-a]pyridin-8-yl)benzoyl]-3-methylmorpholine]",18000 nM,15 nM,11.2 nM,
CC(=O)N1CCC(CN2CC(c3cc(-c4ccc(F)cc4C(=O)N4[C@H](C)COC[C@H]4C)c4c(F)nc(C)n4c3)C2)CC1 [Example 205],20000 nM,18 nM,19 nM,
Cc1nc(F)c2c(-c3ccc(F)cc3C(=O)N3[C@H](C)COC[C@H]3C)cc(C3CN(CC4CCOCC4)C3)cn12 [Example 208],20000 nM,23 nM,9.6 nM,
"CC(=O)N1CCC([C@H](C)N2CC(c3cc(-c4ccc(F)cc4C(=O)N4CCOC[C@H]4C)c4c(F)nc(C)n4c3)C2)CC1 [Example 257-2, 1-{4-[(1S)-1-[3-(1-fluoro-8-{4-fluoro-2-[(3R)-3-methylmorpholin-4-carbonyl]phenyl}-3-methylimidazo[1,5-a]pyridin-6-yl)azacyclobutan-1-yl]ethyl]piperidin-1-yl}ethan-1-one]",20000 nM,19 nM,31 nM,

# Now from value to molecule, other results behind:
IC50 [1],EC50 [3],IC50 ([2]; 168 h),Structure (SMILES),"IC50 ([2]; MOLM-13, 168 h)"
20000 nM,8.5 nM,23 nM,CCNC(=O)N1CCC(CN2CC(c3cc(-c4ccc(F)cc4C(=O)N4CCOC[C@H]4C)c4c(F)nc(C)n4c3)C2)CC1 [Example 261],
20000 nM,18 nM,12 nM,CNC(=O)N1CCC([C@H](C)N2CC(c3cc(-c4ccc(F)cc4C(=O)N4CCOC[C@H]4C)c4c(F)nc(C)n4c3)C2)CC1 [Example 264-2],
20000 nM,54 nM,25 nM,CC(=O)N1CCN(CCC[C@H](C(C)C)N2CC(c3cc(-c4ccc(F)cc4C(=O)N4CCOC[C@H]4C)c4c(F)nc(C)n4c3)C2)CC1 [Example 265],
20000 nM,8.3 nM,9.4 nM,"Cc1nc(F)c2c(-c3ccc(F)cc3C(=O)N3CCOC[C@H]3C)cc(C3CN([C@H](CCCN4CCN(C)CC4)C(C)C)C3)cn12 [Example 275, (3R)-4-[5-fluoro-2-(1-fluoro-3-methyl-6-{1-[(3R)-2-methyl-6-(4-methylpiperazin-1-yl)hexan-3-yl]azacyclobutan-3-yl}imidazo[1,5-a]pyridin-8-yl)benzoyl]-3-methylmorpholine]",
20000 nM,6.5 nM,7.3 nM,CCN1CCN(CCC[C@H](C(C)C)N2CC(c3cc(-c4ccc(F)cc4C(=O)N4CCOC[C@H]4C)c4c(F)nc(C)n4c3)C2)CC1 [Example 277],
20000 nM,15 nM,13 nM,Cc1nc(F)c2c(-c3ccc(F)cc3C(=O)N3CCOCC3C)cc(C3CN(C(CCCN4CCCC(O)C4)C(C)C)C3)cn12 (centres unmarked) [Example 292],
20000 nM,23 nM,24 nM,Cc1nc(F)c2c(-c3ccc(F)cc3C(=O)N3CCOC[C@H]3C)cc(C3CN([C@H](CCCN4CCC[C@H](O)C4)C(C)C)C3)cn12 [Example 293],
20000 nM,7.6 nM,12 nM,CO[C@@H]1CCCN(CCC[C@H](C(C)C)N2CC(c3cc(-c4ccc(F)cc4C(=O)N4CCOC[C@H]4C)c4c(F)nc(C)n4c3)C2)C1 [Example 305],
20000 nM,4.6 nM,7.7 nM,CO[C@H]1CCCN(CCC[C@H](C(C)C)N2CC(c3cc(-c4ccc(F)cc4C(=O)N4CCOC[C@H]4C)c4c(F)nc(C)n4c3)C2)C1 [Example 306],
,5.5 nM,15 nM,"CCN(C(=O)c1cc(F)ccc1-c1cc(C2CN([C@H](CN3CCN(CCO)CC3)C(C)C)C2)cn2c(C)ncc12)C(C)C [Example 431, N-ethyl-5-fluoro-2-(6-{1-[(2S)-1-[4-(2-hydroxylethyl)piperazin-1-yl]-3-methylbutan-2-yl]azacyclobutan-3-yl}-3methylimidazo[1,5-a]pyridin-8-yl)-N-(isopropyl)benzamide]",
